Measured values reported in US20250011311A1, “AMIDO HETEROAROMATIC COMPOUNDS” (AstraZeneca AB, priority 2022, published 2025).

How the values were obtained:
[1] = target: recombinant 17bHSD13 (N2-K300) (Homo sapiens (Human), UniProt Q7Z5P4); assay: In Vitro 17bHSD13 Enzyme Assay; assay type: biochemical; conditions: 80 nM 17bHSD13, 0.5 mM NAD, 20 μM Estradiol, 2.5 h; estradiol to estrone by LC-MS/MS
Method: In Vitro 17bHSD13 Enzyme Assay
The enzyme reaction was initiated by addition, using CERTUS-FLEX dispenser (GYGER), of 20 μl of substrate solution containing NAD (SIGMA, N1511) and Estradiol (SIGMA, E8875). […] Final assay conditions were 80 nM of 17bHSD13, 0.5 mM of NAD, 20 μM Estradiol and various concentrations of compound in buffer (5 mM EDTA (TEKNOVA E0306), 0.01% DDM (AFFYMETRIX D310) in 50 mM Tris-Cl, pH 7.4).
(§1) SCIEX LC-MS/MS system: Sample was injected with CTC analytical injector, SHIMATZU LC pumps LC20 and analyzed on the SCIEX API 5000 LCMSMS system with the following settings. […] The mobile phases consist of A (water with 0.2% formic acid) and B (acetonitrile with 0.2% formic acid). The LC gradient profile is as follows: 50% B during 0 to 0.5 min, a linear increase to 100% B during 0.5 to 1 min, hold at 100% B during 1 to 1.6 min then back to 50% B from 1.6 to 2 min. […] Detection was performed on a API 5000 LC/MS/MS system with a triple quadrupole mass spectrometer, a TURBO V ion source, in multiple reaction monitoring (MRM) mode at positive polarity with APCI probe. […] The dwell times were 100 ms for each transition and a depolarization and collision energy of 100 and 40, respectively. Data from MS signals was using area under curve (AUC). Ratio=Estrone/(Estrone+Estradiol)
(§2) […] […] was used for curve fitting and calculation of IC50 values.
(§3) Compound effect was calculated with the formula below;
(§4) where X represents the effect in the presence of test compound, min is DMSO and max is the maximum inhibition of enzyme using a known inhibitor as control.

[2] = target: recombinant 17bHSD4 (M1-N311) (Homo sapiens (Human), UniProt P51659); assay: In Vitro 17bHSD4 Enzyme Assay; assay type: biochemical; conditions: 40 nM 17bHSD4, 0.125 mM NAD, 15 μM Estradiol, 1.5 h; NADH fluorescence; read-out: 17HSD17b4 Enzyme assay IC50
Method: In Vitro 17bHSD4 Enzyme Assay
10 concentration of compounds (0.2 μl) in DMSO was added to GREINER FLUOTRAC 200 384 well plate (781076) using ECHO dispensing (BECKMAN COULTER). 80 nl of 10 mM Estradiol (SIGMA, E8875) was added using Echo dispensing. The enzyme reaction was initiated by addition, using MULTIDROP COMBI dispensing (THERMO FISHER), of 40 μl of a mix containing recombinant 17bHSD4 (M1-N311) and NAD. Final assay conditions were 40 nM of 17bHSD4, 0.125 mM of NAD, 15 μM Estradiol and various concentrations of compound in buffer (5 mM EDTA (TEKNOVA E0306), 0.01% DDM (AFFYMETRIX D310) in 50 mM Tris-Cl, pH 7.4). After each addition plates were centrifuged for 1 min at 150×g (EPPENDORF, 5810R, A-4-81). NADH formation was measured by fluorescence intensity (FI) (Ex360/Em460) at time zero (to) and at 1.5 h (t1) in a PHERASTAR FSX (BMG LABTECH). FI for each sample was calculated as FI at t1 minus FI at t0.
as §2, §3, §4

[3] = target: over expressed HSD17β13 in HEK293S cells (Homo sapiens (Human), UniProt Q7Z5P4); assay: In Vitro 17bHSD13 Cell Assay; assay type: cell-based; conditions: HEK293S cells over expressing HSD17β13; estradiol to estrone conversion, 18 h, LC-MS/MS; read-out: 17bHSD1713 Cell assay IC50
Method: In Vitro 17bHSD13 Cell Assay
Inhibition of 17bHSD13 was measured in a cell-based assay with over expressed HSD17β13 in HEK293S cells, measuring estradiol to estrone conversion by LCMS/MS.
Samples were analyzed using LC-MS/MS.
as §1, with “analysed” for “analyzed”
as §2, §3, §4

[4] = target: over expressed HSD17β9 in HEK293S cells (Homo sapiens (Human), UniProt Q92781); assay: In Vitro 17bHSD9 Cell Assay; assay type: cell-based; conditions: HEK293S cells over expressing HSD17β9; retinol to retinal conversion, 18 h, LC-MS/MS; read-out: 17bHSD9 Cell assay IC50
Method: In Vitro 17bHSD9 Cell Assay
Inhibition of 17bHSD9 was measured in a cell-based assay with over expressed HSD17β9 in HEK293S cells, measuring retinol to retinal conversion by LCMS/MS.
Cells were plated in 384 well plates (GREINER CELL culture plate 384w black/clear Poly-D-Lysine) at 10 K c/w in 30 μl of culture media (DMEM with GLUTAMAX plus 10% FBS). […] After 18 h of cell culturing for 20 μl of media was transferred using BRAVO dispensing robot (AGILENT) to a GREINER PP 384 well plate (781280) and 40 μl of 50% acetonitrile was added. Samples were analyzed using LC-MS/MS.
SCIEX LC-MS/MS system: Sample was injected with CTC analytical injector, SHIMATZU LC pumps LC20 and analysed on the SCIEX API 5000 LCMSMS system with the following settings. Samples were chromatographed on a WATERS, symmetry, C8, 3.5 μm, 2.1×50 mm) column at constant flow rate of 0.5 mL/min. The mobile phases consists of A (water with 0.2% formic acid) and B (acetonitrile with 0.2% formic acid). The LC gradient profile is as follows: 50% B during 0 to 0.1 min, a linear increase to 100% B during 0.1 to 0.8 min, hold at 100% B during 0.8 to 1.5 min then back to 50% B from 1.5 to 1.6 min and hold during run time. The run time was 2 min with retention times of approximately 1.54 and 1.62 min for Retinol and Retinal, respectively. Detection was performed on a API 5000 LC/MS/MS system with a triple quadrupole mass spectrometer, a TURBO V ion source, in multiple reaction monitoring (MRM) mode at positive polarity with ESI probe. The MRM pairs were m/z 269.3 to m/z 93.0 and m/z 285.2 to 161.0. for Retinol and Retinal, respectively. The dwell times were 100 ms for each transition and a depolarization and collision energy of 50 and 25, respectively. Data from MS signals was using area under curve (AUC). Ratio=Retinal/(Retinal+Retinol).
as §2, §3, §4

recombinant 17bHSD4 (M1-N311), sequence (P51659 1-311): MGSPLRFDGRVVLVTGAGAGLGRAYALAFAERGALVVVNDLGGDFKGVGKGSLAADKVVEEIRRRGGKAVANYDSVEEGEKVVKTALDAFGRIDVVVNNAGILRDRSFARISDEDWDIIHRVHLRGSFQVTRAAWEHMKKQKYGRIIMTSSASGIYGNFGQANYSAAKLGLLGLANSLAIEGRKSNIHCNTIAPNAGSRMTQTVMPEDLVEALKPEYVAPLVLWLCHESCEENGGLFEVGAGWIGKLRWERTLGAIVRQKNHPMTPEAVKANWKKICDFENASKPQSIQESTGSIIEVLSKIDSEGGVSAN
over expressed HSD17β13 in HEK293S cells, sequence (Q7Z5P4 20-300): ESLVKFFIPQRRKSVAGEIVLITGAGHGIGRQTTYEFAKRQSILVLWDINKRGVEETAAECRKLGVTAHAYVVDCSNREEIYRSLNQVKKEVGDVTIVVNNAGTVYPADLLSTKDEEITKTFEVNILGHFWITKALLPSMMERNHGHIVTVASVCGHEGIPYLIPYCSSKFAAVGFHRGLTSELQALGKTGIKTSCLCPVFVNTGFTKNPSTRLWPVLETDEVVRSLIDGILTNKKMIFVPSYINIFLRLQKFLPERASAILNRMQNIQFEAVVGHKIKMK
recombinant 17bHSD13 (N2-K300), sequence (Q7Z5P4 2-300): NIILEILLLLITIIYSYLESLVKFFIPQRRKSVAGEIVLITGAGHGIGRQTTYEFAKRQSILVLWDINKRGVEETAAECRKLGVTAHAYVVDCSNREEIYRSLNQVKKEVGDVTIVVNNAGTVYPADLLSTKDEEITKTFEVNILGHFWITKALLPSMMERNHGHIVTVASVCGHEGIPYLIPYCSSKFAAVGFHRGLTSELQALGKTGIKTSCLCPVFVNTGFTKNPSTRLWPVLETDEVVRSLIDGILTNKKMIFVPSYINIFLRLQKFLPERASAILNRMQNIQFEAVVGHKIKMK
over expressed HSD17β9 in HEK293S cells, sequence (Q92781 whole entry): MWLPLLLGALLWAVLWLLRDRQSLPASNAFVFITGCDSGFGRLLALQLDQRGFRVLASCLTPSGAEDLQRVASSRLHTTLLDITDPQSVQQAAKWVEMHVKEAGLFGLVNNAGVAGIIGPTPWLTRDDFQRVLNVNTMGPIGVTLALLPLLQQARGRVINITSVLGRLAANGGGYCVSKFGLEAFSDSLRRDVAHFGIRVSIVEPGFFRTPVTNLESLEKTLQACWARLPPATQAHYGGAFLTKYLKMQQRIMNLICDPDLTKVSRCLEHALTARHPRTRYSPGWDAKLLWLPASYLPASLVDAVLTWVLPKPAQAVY

Structure (SMILES) | IC50 [1] [nM] | IC50 [2] [nM] | IC50 [3] [nM] | IC50 [4] [nM]
CC(C)C1COCCN1C(=O)c1noc(-c2cc(F)c(F)c(O)c2F)n1 (centres unmarked) [Example 35, (3-Isopropylmorpholino)(5-(2,4,5-trifluoro-3-hydroxyphenyl)-1,2,4-oxadiazol-3-yl)methanone] | 640 | 42200 | 2220 | 4200
O=C(c1noc(-c2cc(F)c(F)c(O)c2F)n1)N1CCC2(C1)OCc1ccccc12 (centres unmarked) [Example 102, (3H-Spiro[isobenzofuran-1,3′-pyrrolidin]-1′-yl)(5-(2,4,5-trifluoro-3-hydroxyphenyl)-1,2,4-oxadiazol-3-yl)methanone] | 52 | – | 700 | > 50000
CC1(C)COCCN1C(=O)c1noc(-c2cc(F)c(F)c(O)c2F)n1 [Example 48, (3,3-Dimethylmorpholino)(5-(2,4,5-trifluoro-3-hydroxyphenyl)-1,2,4-oxadiazol-3-yl)methanone] | 388 | > 50000 | 1100 | > 50000
O=C(c1noc(-c2cc(F)c(F)c(O)c2F)n1)N1CC=C(c2ccccc2)CC1 [Example 62, (4-Phenyl-3,6-dihydropyridin-1(2H)-yl)(5-(2,4,5-trifluoro-3-hydroxyphenyl)-1,2,4-oxadiazol-3-yl)methanone] | 46 | 3000 | 960 | 15800
O=C(c1noc(-c2cc(F)c(F)c(O)c2F)n1)N1CCO[C@H](C(F)(F)F)C1 [Example 46, (S)-(5-(2,4,5-Trifluoro-3-hydroxyphenyl)-1,2,4-oxadiazol-3-yl)(2-(trifluoromethyl)morpholino)methanone] | 517 | > 50000 | 370 | 7700
CC(C)c1noc(C2=CCN(C(=O)c3noc(-c4cc(F)c(F)c(O)c4F)n3)CC2)n1 [Example 107, (4-(3-Isopropyl-1,2,4-oxadiazol-5-yl)-3,6-dihydropyridin-1(2H)-yl)(5-(2,4,5-trifluoro-3-hydroxyphenyl)-1,2,4-oxadiazol-3-yl)methanone] | 143 | 10500 | 370 | 5000
COc1cccc(N2CCN(C(=O)c3noc(-c4cc(F)c(F)c(O)c4F)n3)CC2)c1 [Example 61, (4-(3-Methoxyphenyl)piperazin-1-yl)(5-(2,4,5-trifluoro-3-hydroxyphenyl)-1,2,4-oxadiazol-3-yl)methanone] | 50 | – | 730 | > 50000
CN(C(=O)c1noc(-c2ccc(F)c(O)c2)n1)c1nnnn1-c1ccccc1 [Example 92, 5-(4-Fluoro-3-hydroxyphenyl)-N-methyl-N-(1-phenyl-1H-tetrazol-5-yl)-1,2,4-oxadiazole-3-carboxamide] | 41 | – | 1540 | > 50000
Cc1ccc2[nH]c(CN(C)C(=O)c3noc(-c4cc(F)c(F)c(O)c4F)n3)nc2c1 [Example 73, N-Methyl-N-((5-methyl-1H-benzo[d]imidazol-2-yl)methyl)-5-(2,4,5-trifluoro-3-hydroxyphenyl)-1,2,4-oxadiazole-3-carboxamide] | 88 | – | 21600 | > 50000
O=C(c1cc(-c2ccc(F)c(O)c2)on1)N1CC[C@H](c2ccccc2)C1 [Example 101, (R)-(5-(4-Fluoro-3-hydroxyphenyl)isoxazol-3-yl)(3-phenylpyrrolidin-1-yl)methanone] | 50 | – | 420 | > 50000
N#Cc1c(C(=O)N2CCC(c3ccccc3)C2)noc1-c1ccc(F)c(O)c1 (centres unmarked) [Example 13, 5-(4-Fluoro-3-hydroxyphenyl)-3-(3-phenylpyrrolidine-1-carbonyl)isoxazole-4-carbonitrile] | 40 | 15600 | 460 | –
O=C(c1nnc(-c2ccc(F)c(O)c2)o1)N1CC[C@H](c2ccccc2)C1 [Example 1, (R)-(5-(4-Fluoro-3-hydroxyphenyl)-1,3,4-oxadiazol-2-yl)(3-phenylpyrrolidin-1-yl)methanone] | 308 | 32400 | 750 | –
O=C(c1noc(-c2cc(F)c(F)c(O)c2F)n1)N1CCN(c2ccccc2)CC1 [Example 81, (4-Phenylpiperazin-1-yl)(5-(2,4,5-trifluoro-3-hydroxyphenyl)-1,2,4-oxadiazol-3-yl)methanone] | 95 | – | 410 | > 50000
COc1cccc(N2CCN(C(=O)c3noc(-c4cc(C(F)(F)F)[nH]c(=O)c4)n3)CC2)c1 [Example 10, 4-(3-(4-(3-Methoxyphenyl)piperazine-1-carbonyl)-1,2,4-oxadiazol-5-yl)-6-(trifluoromethyl)pyridin-2(1H)-one] | 474 | – | 4140 | > 50000
O=C(c1cc(-c2cc(F)c(F)c(O)c2F)on1)N1CC[C@H](c2ccccc2)C1 [Example 104, (R)-(3-Phenylpyrrolidin-1-yl)(5-(2,4,5-trifluoro-3-hydroxyphenyl)isoxazol-3-yl)methanone] | 57 | 9600 | 540 | –
